Measurements from patent US9644181B2, “Cell preparation containing myocardium-committed cell” (RIKEN, priority 2012, dated 2017).

Tests used:
[1] = test system: adipose-tissue-derived multi-lineage/multi-potent progenitor cells (ADMPC); details: FIG. 1
Description: (§1) Adipose tissues were provided by subjects from whom informed consent had been obtained by suction surgery from subcutaneous tissues. Neither steroid agent nor TZD had been administered to any of the subjects. Adipose tissues were cut into small pieces. Next, digestion was performed for 1 hour with shaking in 0.067% collagenase (Roche applied science)-containing Hanks' Balanced Salt Solution (HBSS) in a water bath at 37° C. The digested products were filtered through a Cell Strainer (BD Bioscience) and then centrifuged at 800 g for 10 minutes. Erythrocytes were removed by a specific gravity method using Lymphoprep (d=1.077) (Nycomed). The thus obtained Stromal Vascular Fraction (cells) was seeded into DMEM containing 10% fetal calf serum (Life Technologies). Cells were cultured for 24 hours so that they would adhere. After washing, the resultant was treated with EDTA, and ADMPC were thereby obtained. Next, ADMPC were seeded on a human-fibronectin-coated dish in medium I: 60% DMEM-low glucose, 40% MCDB201, […], 1 nM dexamethasone, 100 μM ascorbic acid, and 5% FBS at a density of 10,000 cells/cm^2, passaged 3 to 5 times, and then used for experiments.
Total RNA was isolated from the thus obtained cells using an RNeasy mini kit (Qiagen) according to protocols recommended by the manufacturer. […]

[2] = test system: adipose-tissue-derived multi-lineage/multi-potent progenitor cells (ADMPC); assay: Comparison of the induction of the expression of various markers by spermine and DMSO; assay type: cell-based, human
Description: as §1
(§2) Total RNA was isolated from the thus obtained cells using an RNeasy mini kit (Qiagen) according to protocols recommended by the manufacturer. Total RNA (500 ng) was subjected to DNase treatment, and then cDNA was synthesized using Superscript III reverse transcriptase RNase H (-) (Life Technologies).
(§3) Subsequently, TaqMan Universal PCR Master Mix (Applied Biosystems) (10 μl) and TaqMan Gene Expression Assays (Applied Biosystems) (1 μl) were added to the thus prepared cDNA (9 μl). Real-time PCR was performed using an Applied Biosystems 7900 Fast Real-Time PCR system under the following conditions: denaturation at 95° C. for 10 minutes and 40 cycles of 95° C. for 15 seconds and 60° C. for 1 minute. TaqMan probes and assay IDs (available from GenBank/NCBI (U.S.A.)) used for Islet-1, Nkx2.5, GATA-4, α-CA, cardiac troponin I, MLC, MHC, and GAPDH are listed in Table 1 below.
ADMPC passaged 4 times by plate culture were detached and washed with TrypLE Select (Life Technologies; the same applies hereafter) and were suspended at a concentration of 1×10^5/mL in Knockout-DMEM (Life Technologies; the same applies hereafter) supplemented with 0, 5, 25, 50, 100, 200, or 500 μM or 1 mM spermine (Wako Pure Chemical Industries, Ltd. (Japan); the same applies hereafter) and 20% KSR (Knockout Serum Replacement; Life Technologies; the same applies hereafter). 10 mL of cells was seeded on an EZ-Sphere low-adhesion culture dish (diameter: 10 cm, AGC; the same applies hereafter), and then suspension culture was performed. […]

[3] = test system: adipose-tissue-derived multi-lineage/multi-potent progenitor cells (ADMPC); assay: Induction of the expression of myocardium-committed-cell markers in ADMPC, concentration series (TaqMan PCR, GAPDH ratios); assay type: cell-based, human
Description: as §1, §2, §3
ADMPC passaged 4 times by plate culture were detached and washed with TrypLE Select (Life Technologies; the same applies hereafter) and were suspended at a concentration of 1×10^5/mL in Knockout-DMEM (Life Technologies; […], Ltd. (Japan); the same applies hereafter) and 20% KSR (Knockout Serum Replacement; Life Technologies; the same applies hereafter). 10 mL of cells was seeded on an EZ-Sphere low-adhesion culture dish (diameter: 10 cm, AGC; the same applies hereafter), and then suspension culture was performed. After 24 hours, cells were collected, quantitative analysis of expression was performed by TaqMan PCR, and then GAPDH ratios were calculated.

Q: How did the “effect of presence or absence of growth factors (EGF, bFGF) on the expression levels” value ([1]; 100 μM spermine) turn out when NCCCNCCCCNCCCN [Spermine, spermine] was run?
A: Its value is “did not significantly affect”.

Q: What about the “expression of isl-1, nkx2.5, GATA-4, α-CA, cardiac troponin I, MHC and MLC” value ([1]; 100 μM, 24, 72 and 120 hours) of the same molecule?
A: The value was “Expression was confirmed”.

Q: What about the “expression levels of all markers, treatment with spermine compared with treatment with DMSO” value ([2]; 100 μM spermine 24, 72, 120 hours vs 0.1% DMSO 48 hours) of the same molecule?
A: Its value is “several to several hundred times greater”.

Q: What about the “Cardiac troponin I/DMSO ratio” value ([2]; 100 μM, 1 day culture) of the same molecule?
A: Its value is 7.91.

Q: And the “Cardiac α-actin/DMSO ratio” value ([2]; 100 μM, 1 day culture)?
A: The value was 192.84.

Q: And the GATA4/DMSO ratio ([2]; 100 μM, 1 day culture)?
A: Its GATA4/DMSO ratio is 3.75.

Q: What about the Isl1/DMSO ratio ([2]; 100 μM, 1 day culture) of the same molecule?
A: Its Isl1/DMSO ratio is 6.79.

Q: What about the MHC/DMSO ratio ([2]; 100 μM, 1 day culture) of the same molecule?
A: Its MHC/DMSO ratio is 2.31 × 10^−6.

Q: And the MLC/DMSO ratio ([2]; 100 μM, 1 day culture)?
A: Its MLC/DMSO ratio is 0.67.

Q: And the Nkx2.5/DMSO ratio ([2]; 100 μM, 1 day culture)?
A: Its Nkx2.5/DMSO ratio is 3.58.

Q: And the “Cardiac troponin I/DMSO ratio” value ([2]; 100 μM, 3 days culture)?
A: The value was 25.16.

Q: And the “Cardiac α-actin/DMSO ratio” value ([2]; 100 μM, 3 days culture)?
A: Its value is 169.75.

Q: And the GATA4/DMSO ratio ([2]; 100 μM, 3 days culture)?
A: Its GATA4/DMSO ratio is 8.19.

Q: What about the Isl1/DMSO ratio ([2]; 100 μM, 3 days culture) of the same molecule?
A: Its Isl1/DMSO ratio is 10.44.

Q: And the MHC/DMSO ratio ([2]; 100 μM, 3 days culture)?
A: Its MHC/DMSO ratio is 3.74 × 10^−5.

Q: And the MLC/DMSO ratio ([2]; 100 μM, 3 days culture)?
A: The MLC/DMSO ratio was 0.88.

Q: And the Nkx2.5/DMSO ratio ([2]; 100 μM, 3 days culture)?
A: Its Nkx2.5/DMSO ratio is 5.19.

Q: What about the “Cardiac troponin I/DMSO ratio” value ([2]; 100 μM, 5 days culture) of the same molecule?
A: The value was 11.87.

Q: And the “Cardiac α-actin/DMSO ratio” value ([2]; 100 μM, 5 days culture)?
A: The value was 42.85.

Q: And the GATA4/DMSO ratio ([2]; 100 μM, 5 days culture)?
A: The GATA4/DMSO ratio was 12.15.

Q: What about the Isl1/DMSO ratio ([2]; 100 μM, 5 days culture) of the same molecule?
A: The Isl1/DMSO ratio was 3.49.

Q: What about the MHC/DMSO ratio ([2]; 100 μM, 5 days culture) of the same molecule?
A: The MHC/DMSO ratio was 7.67 × 10^−6.

Q: And the MLC/DMSO ratio ([2]; 100 μM, 5 days culture)?
A: The MLC/DMSO ratio was 0.45.

Q: What about the Nkx2.5/DMSO ratio ([2]; 100 μM, 5 days culture) of the same molecule?
A: The Nkx2.5/DMSO ratio was 7.47.

Q: What about the “expression of isl-1, nkx2.5, GATA-4, α-CA, cardiac troponin I and MHC” value ([3]; spermine 0, 5, 25, 50, 100, 200, 500 μM or 1 mM, suspension culture 24 hours) of the same molecule?
A: The value was “expression was confirmed”.

Q: What about the “concentration at which all markers exhibited the highest expression levels” value ([3]; spermine series 0-1 mM, 24 hours) of the same molecule?
A: The value was 100 µM.

Q: Which results are given for C[S+](C)[O-] [DMSO]?
A: Cardiac troponin I/DMSO ratio ([2]; 0.1% in medium, 48 hours): 1; Cardiac α-actin/DMSO ratio ([2]; 0.1% in medium, 48 hours): 1; GATA4/DMSO ratio ([2]; 0.1% in medium, 48 hours): 1; Isl1/DMSO ratio ([2]; 0.1% in medium, 48 hours): 1; MHC/DMSO ratio ([2]; 0.1% in medium, 48 hours): Not detected; MLC/DMSO ratio ([2]; 0.1% in medium, 48 hours): 1; Nkx2.5/DMSO ratio ([2]; 0.1% in medium, 48 hours): 1

Q: For NCCCCNCCCN [spermidine], which “expression of isl-1, nkx2.5 and GATA-4” value ([3]; spermidine 0, 5, 25, 50, 100, 200, 500 μM or 1 mM, suspension culture 24 hours) is on record?
A: Its value is “expression was confirmed”.

Q: And the “concentration at which all markers (isl-1, nkx2.5, GATA-4) exhibited the highest expression levels” value ([3]; spermidine series 0-1 mM, 24 hours)?
A: Its value is 200 µM.
